SMILES strings stand for the structures.

Experiment [1] has as its target Macrophage colony-stimulating factor 1 receptor (Homo sapiens) (UniProt P07333). The note with it: Compound concentration 1000.0 nM.
The target of experiment [2] is High affinity nerve growth factor receptor (Homo sapiens) (UniProt P04629). The note with it: Compound concentration 1000.0 nM.
In experiment [3] the target is D(1B) dopamine receptor (Homo sapiens) (UniProt P21918). The note with it: Compound concentration 10.0 uM.
Experiment [4] concerns the target Phosphatidylinositol 4-phosphate 5-kinase type-1 gamma (Homo sapiens) (UniProt O60331). The note with it: Compound concentration 1000.0 nM.
Experiment [5] has as its target Fibroblast growth factor receptor 2 (Homo sapiens) (UniProt P21802). The note with it: Compound concentration 1000.0 nM.
For experiment [6], the target named is Activin receptor type-1-like (Homo sapiens) (UniProt P37023). The note with it: Compound concentration 1000.0 nM.
The target in experiment [7] is Mitogen-activated protein kinase 8 (Homo sapiens) (UniProt P45983). The note with it: Compound concentration 1000.0 nM.
In experiment [8] the target is Tyrosine-protein kinase ABL2 (Homo sapiens) (UniProt P42684). The note with it: Compound concentration 1000.0 nM.
Experiment [9] has as its target Myosin-IIIa (Homo sapiens) (UniProt Q8NEV4). The note with it: Compound concentration 1000.0 nM.
In experiment [10] the test system is Receptor-type tyrosine-protein kinase FLT3 (Homo sapiens), P36888 [D835V]. The note with it: Compound concentration 1000.0 nM.
For experiment [11], the system named is Mast/stem cell growth factor receptor Kit (Homo sapiens), P10721 [D816V]. The conditions noted are these: Compound concentration 1000.0 nM.
For experiment [12], the target named is Tyrosine-protein kinase CSK (Homo sapiens) (UniProt P41240). The note with it: Compound concentration 1000.0 nM.
Experiment [13] addresses Dual specificity mitogen-activated protein kinase kinase 1 (Homo sapiens) (UniProt Q02750). The note with it: Compound concentration 1000.0 nM.
In experiment [14] the target is Epidermal growth factor receptor (Homo sapiens) (UniProt P00533). The note with it: Compound concentration 1000.0 nM.
The target in experiment [15] is T1, Mitogen-activated protein kinase 13 (Homo sapiens) (UniProt O15264).
T1 sequence (whole entry): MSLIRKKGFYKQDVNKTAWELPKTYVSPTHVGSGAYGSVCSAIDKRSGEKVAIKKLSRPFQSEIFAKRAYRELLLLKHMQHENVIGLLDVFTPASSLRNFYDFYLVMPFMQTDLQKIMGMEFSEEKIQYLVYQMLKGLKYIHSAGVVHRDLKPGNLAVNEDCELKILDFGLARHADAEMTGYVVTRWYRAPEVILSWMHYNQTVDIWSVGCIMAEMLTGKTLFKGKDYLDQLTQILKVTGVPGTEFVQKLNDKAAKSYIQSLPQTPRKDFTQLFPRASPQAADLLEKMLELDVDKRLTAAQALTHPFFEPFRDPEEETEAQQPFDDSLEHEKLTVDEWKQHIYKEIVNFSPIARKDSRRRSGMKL
The note with it: Compound concentration 1000.0 nM.

The target in experiment [16] is Serine/threonine-protein kinase MRCK beta (Homo sapiens) (UniProt Q9Y5S2). The note with it: Compound concentration 1000.0 nM.
The target in experiment [17] is T2, Ephrin type-A receptor 8 (Homo sapiens) (UniProt P29322).
T2 sequence (whole entry): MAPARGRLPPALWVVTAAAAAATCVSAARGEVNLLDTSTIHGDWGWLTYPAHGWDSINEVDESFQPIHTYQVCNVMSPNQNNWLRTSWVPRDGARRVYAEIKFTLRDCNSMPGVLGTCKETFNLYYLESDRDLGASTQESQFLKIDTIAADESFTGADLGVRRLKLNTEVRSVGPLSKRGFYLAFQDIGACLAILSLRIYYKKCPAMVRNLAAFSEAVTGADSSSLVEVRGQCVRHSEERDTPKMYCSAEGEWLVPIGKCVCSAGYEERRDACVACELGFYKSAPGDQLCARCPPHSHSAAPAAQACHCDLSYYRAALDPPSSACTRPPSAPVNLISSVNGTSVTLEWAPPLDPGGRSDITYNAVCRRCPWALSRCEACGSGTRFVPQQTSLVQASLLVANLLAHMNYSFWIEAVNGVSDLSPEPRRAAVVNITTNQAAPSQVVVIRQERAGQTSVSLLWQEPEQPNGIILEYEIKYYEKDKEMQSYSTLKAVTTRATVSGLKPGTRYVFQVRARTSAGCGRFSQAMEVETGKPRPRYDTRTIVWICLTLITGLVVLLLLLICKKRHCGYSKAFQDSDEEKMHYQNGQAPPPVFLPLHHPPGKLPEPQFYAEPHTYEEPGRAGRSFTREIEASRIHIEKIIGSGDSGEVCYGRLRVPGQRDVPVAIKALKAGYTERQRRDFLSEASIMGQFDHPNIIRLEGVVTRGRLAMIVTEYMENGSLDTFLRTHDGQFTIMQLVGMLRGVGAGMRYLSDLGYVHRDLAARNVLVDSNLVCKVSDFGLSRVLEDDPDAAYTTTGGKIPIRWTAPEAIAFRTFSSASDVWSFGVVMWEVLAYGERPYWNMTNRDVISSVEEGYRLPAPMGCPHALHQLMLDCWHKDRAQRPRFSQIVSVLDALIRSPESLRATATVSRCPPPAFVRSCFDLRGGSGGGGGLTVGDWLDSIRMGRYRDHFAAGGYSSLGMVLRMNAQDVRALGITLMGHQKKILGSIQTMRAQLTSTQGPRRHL
The note with it: Compound concentration 1000.0 nM.

Experiment [18] concerns the target Ribosomal protein S6 kinase alpha-1 (Homo sapiens) (UniProt Q15418). The conditions noted are these: Compound concentration 1000.0 nM.
Experiment [19] deals with Ephrin type-A receptor 4 (Homo sapiens) (UniProt P54764). The note with it: Compound concentration 1000.0 nM.
The target of experiment [20] is 5-hydroxytryptamine receptor 1D (Homo sapiens) (UniProt P28221). The note with it: Compound concentration 10.0 uM.
Experiment [21] has as its target Mu-type opioid receptor (Homo sapiens) (UniProt P35372). The note with it: Compound concentration 10.0 uM.
For experiment [22], the target named is Sodium-dependent dopamine transporter (Homo sapiens, UniProt Q01959). The note with it: Compound concentration 10.0 uM.

Phosphatidylinositol 4-phosphate 5-kinase type-1 gamma (Homo sapiens), sequence (O60331 whole entry): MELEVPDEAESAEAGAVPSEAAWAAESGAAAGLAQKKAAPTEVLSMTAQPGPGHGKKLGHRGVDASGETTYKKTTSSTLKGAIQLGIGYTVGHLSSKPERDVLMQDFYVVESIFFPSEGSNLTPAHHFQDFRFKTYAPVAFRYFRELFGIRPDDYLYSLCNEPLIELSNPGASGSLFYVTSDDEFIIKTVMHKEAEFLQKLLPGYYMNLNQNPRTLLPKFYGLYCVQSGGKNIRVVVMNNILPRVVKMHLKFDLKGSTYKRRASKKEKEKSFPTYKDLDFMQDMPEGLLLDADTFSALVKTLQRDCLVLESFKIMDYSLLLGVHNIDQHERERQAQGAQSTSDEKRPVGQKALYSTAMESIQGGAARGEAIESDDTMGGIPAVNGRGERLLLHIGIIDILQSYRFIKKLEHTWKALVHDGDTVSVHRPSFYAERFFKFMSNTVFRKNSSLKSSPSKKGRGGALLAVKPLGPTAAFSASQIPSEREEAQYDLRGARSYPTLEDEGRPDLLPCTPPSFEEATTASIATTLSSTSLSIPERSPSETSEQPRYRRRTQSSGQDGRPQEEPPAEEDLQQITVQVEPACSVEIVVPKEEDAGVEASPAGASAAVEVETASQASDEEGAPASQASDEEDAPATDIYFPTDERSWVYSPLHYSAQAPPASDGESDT
Fibroblast growth factor receptor 2 (Homo sapiens), sequence (P21802 22-821 limits assumed): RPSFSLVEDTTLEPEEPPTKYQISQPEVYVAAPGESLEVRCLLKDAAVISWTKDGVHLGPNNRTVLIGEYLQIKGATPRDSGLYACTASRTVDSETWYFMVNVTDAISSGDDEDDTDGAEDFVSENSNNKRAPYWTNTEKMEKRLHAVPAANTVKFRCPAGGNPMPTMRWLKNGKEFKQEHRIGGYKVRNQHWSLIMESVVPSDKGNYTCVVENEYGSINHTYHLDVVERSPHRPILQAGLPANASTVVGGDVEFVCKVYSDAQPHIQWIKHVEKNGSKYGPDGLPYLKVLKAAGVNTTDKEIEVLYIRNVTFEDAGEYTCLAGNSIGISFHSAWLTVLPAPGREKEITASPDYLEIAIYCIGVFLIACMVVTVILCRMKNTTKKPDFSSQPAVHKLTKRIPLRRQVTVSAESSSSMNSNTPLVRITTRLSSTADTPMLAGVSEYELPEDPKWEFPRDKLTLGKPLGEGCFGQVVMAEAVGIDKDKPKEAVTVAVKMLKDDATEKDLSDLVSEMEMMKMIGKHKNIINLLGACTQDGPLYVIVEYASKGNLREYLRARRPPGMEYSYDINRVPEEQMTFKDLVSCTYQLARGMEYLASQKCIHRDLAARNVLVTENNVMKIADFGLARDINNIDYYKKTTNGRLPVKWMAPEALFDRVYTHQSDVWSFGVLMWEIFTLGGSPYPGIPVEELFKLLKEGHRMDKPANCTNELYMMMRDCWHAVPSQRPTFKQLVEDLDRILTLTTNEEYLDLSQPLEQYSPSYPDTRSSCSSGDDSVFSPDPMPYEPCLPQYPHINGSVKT
Myosin-IIIa (Homo sapiens), sequence (Q8NEV4 whole entry): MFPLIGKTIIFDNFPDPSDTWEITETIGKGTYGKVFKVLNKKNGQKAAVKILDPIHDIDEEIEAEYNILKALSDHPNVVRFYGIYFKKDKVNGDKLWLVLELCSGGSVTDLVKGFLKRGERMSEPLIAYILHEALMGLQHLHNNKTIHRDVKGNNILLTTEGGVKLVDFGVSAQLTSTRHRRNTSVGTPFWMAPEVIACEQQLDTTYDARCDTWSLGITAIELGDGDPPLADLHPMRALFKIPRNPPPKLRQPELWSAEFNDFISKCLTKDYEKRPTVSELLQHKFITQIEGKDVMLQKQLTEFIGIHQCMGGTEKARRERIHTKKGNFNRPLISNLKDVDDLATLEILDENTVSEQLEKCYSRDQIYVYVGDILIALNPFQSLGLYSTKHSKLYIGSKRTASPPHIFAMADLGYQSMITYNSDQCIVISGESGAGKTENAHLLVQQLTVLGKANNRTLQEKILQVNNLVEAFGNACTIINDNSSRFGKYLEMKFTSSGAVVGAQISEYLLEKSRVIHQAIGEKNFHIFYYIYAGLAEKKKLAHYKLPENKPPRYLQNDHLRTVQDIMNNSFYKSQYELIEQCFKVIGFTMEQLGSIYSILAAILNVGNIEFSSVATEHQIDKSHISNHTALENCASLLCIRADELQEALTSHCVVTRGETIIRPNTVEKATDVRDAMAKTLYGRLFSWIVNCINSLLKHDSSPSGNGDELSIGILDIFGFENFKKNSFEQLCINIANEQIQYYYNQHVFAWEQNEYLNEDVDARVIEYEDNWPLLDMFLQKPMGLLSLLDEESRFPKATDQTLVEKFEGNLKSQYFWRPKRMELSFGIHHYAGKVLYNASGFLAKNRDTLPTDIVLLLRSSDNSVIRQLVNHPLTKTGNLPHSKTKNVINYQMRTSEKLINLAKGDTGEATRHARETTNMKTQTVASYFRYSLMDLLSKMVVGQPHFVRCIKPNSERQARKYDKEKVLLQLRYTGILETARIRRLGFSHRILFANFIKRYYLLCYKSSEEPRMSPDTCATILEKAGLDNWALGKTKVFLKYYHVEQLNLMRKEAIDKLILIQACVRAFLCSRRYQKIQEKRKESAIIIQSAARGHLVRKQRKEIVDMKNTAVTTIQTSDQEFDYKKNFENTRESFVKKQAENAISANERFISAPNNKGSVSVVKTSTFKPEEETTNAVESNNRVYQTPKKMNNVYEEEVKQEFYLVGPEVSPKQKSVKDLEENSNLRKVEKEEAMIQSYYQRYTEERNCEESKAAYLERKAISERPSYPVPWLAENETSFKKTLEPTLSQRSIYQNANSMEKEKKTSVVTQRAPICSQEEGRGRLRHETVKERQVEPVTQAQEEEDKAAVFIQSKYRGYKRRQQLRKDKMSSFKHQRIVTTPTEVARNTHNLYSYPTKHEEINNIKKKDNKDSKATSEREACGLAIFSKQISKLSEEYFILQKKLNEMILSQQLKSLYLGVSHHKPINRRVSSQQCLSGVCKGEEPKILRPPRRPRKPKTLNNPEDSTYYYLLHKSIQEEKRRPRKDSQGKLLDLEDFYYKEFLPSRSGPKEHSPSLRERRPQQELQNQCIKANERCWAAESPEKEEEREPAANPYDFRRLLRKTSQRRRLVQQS
Ribosomal protein S6 kinase alpha-1 (Homo sapiens), sequence (Q15418 whole entry): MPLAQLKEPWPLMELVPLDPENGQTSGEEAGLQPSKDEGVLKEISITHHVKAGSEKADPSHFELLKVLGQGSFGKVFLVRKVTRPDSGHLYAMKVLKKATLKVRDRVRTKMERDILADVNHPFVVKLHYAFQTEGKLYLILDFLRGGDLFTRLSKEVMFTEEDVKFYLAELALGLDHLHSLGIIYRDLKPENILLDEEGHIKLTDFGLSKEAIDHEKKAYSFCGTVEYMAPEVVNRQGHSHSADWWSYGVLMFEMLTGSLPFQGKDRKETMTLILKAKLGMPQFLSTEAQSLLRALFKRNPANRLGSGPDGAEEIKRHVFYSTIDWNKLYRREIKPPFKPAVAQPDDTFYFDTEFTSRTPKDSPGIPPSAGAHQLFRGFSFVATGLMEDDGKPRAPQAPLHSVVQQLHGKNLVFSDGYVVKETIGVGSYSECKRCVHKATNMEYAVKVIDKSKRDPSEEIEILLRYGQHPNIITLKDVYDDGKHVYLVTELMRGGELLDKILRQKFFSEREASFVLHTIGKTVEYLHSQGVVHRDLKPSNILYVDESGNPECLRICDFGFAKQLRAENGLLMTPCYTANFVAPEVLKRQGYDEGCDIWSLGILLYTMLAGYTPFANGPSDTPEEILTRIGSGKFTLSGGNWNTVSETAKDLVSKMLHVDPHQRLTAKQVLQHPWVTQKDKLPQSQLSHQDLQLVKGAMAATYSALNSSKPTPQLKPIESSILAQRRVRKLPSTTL
Epidermal growth factor receptor (Homo sapiens), sequence (P00533 whole entry): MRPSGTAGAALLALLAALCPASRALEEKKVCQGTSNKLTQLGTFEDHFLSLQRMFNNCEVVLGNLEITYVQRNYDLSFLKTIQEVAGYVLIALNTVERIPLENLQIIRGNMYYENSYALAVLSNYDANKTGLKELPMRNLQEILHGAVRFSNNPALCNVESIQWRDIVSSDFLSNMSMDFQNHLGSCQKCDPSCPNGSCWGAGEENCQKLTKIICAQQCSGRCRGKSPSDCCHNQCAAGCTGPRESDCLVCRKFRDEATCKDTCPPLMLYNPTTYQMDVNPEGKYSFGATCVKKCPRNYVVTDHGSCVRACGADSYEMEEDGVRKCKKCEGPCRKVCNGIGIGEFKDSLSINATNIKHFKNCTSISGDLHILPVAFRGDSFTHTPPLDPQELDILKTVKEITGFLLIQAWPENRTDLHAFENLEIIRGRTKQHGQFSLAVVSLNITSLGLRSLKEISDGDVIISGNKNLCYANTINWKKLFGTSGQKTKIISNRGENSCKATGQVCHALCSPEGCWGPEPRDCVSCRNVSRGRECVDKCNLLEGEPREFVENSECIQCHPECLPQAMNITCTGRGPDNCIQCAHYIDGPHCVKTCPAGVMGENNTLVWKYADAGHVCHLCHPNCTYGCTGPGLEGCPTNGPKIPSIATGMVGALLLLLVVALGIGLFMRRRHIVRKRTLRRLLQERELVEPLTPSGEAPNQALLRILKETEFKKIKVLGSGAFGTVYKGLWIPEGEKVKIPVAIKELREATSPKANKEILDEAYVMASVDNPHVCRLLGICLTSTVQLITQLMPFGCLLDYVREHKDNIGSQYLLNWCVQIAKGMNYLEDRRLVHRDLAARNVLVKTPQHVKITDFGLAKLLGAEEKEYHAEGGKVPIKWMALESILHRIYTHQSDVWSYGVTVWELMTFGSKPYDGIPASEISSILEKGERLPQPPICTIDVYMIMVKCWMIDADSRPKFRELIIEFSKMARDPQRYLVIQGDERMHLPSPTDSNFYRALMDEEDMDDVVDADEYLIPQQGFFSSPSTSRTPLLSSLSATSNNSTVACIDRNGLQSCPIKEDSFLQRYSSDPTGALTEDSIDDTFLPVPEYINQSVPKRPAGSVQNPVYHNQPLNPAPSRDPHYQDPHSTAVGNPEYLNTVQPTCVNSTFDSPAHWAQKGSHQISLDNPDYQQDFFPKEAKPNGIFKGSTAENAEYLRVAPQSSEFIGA

For `CN(C)C(=O)Cn1cc(-c2nc(C3(c4ccc(-c5cnc(N)nc5)cc4)CC3)no2)cn1` [BI 0153], the residual activity in experiment [1] was 84%; in experiment [2] it was 100%; in [4], 96%; in [5], 100%; in experiment [6], 86%; in experiment [7], 78%. Also, the residual activity was 84% in [8]; 100% in experiment [9]; 49% in experiment [10]; 92% in experiment [11]; 100% in experiment [12]; 82% in experiment [13]. The residual activity in [14] is 93%; in experiment [15], 91%; in [16] it was 85%; in experiment [17], 87%; in [18], 100%; in experiment [19], 100%. For the same compound, the inhibition was 22.8% in experiment [3], -3.06% in experiment [20], 12.6% in experiment [21] and 52.4% in [22].

Consider `CN(C)C(=O)Cn1cc(-c2nc([C@@](C)(c3ccc(-c4cnc(N)nc4)cc3)C3CC3)no2)cn1` [BI 665915], for which the residual activity in [1] was 96%; in experiment [2], 70%; in [4], 100%; in experiment [5], 85%; in [6], 84%; in experiment [7], 51%. For the same compound, the residual activity in experiment [8] is 100%; in experiment [9] it was 100%; in experiment [10] it was 72%; in experiment [11], 94%; in [12], 100%; in experiment [13] it was 89%. The residual activity in experiment [14] is 93%; in [15] it was 93%; in [16], 99%; in experiment [17] it was 100%; in experiment [18] it was 99%; in experiment [19], 100%. Further, the inhibition in experiment [3] is 9.24%; in [20], -5.95%; in experiment [21] it was 4.55%; in experiment [22] it was 60.7%.

Broadly, the inhibition is the relative decrease from the control value, in per cent.
